Experimental data reported in PubChem BioAssay (NCI).
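All cell lines were grown in 96-well plates and treated with compound for 48 hours. TGI: total growth inhibition.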

Assays:
Assay in all cases: inhibition of tumour cell growth, NCI panel, 48 h
A549 NSCLC = system: A549 NSCLC
ACHN renal = system: ACHN renal
BT-549 breast = system: BT-549 breast
CAKI-1 renal = system: CAKI-1 renal
EKVX NSCLC = system: EKVX NSCLC
HL-60(TB) leukemia = system: HL-60(TB) leukemia
HOP-62 NSCLC = system: HOP-62 NSCLC
HOP-92 NSCLC = system: HOP-92 NSCLC
HT29 colon = system: HT29 colon
KM12 colon = system: KM12 colon
MCF7 breast = system: MCF7 breast
RPMI-8226 leukemia = system: RPMI-8226 leukemia
SF-295 CNS = system: SF-295 CNS
SK-MEL-2 melanoma = system: SK-MEL-2 melanoma
SK-MEL-5 melanoma = system: SK-MEL-5 melanoma
T-47D breast = system: T-47D breast
TK-10 renal = system: TK-10 renal
M14 melanoma = system: M14 melanoma
SN12C renal = system: SN12C renal
SNB-19 CNS = system: SNB-19 CNS

SMILES | TGI (A549 NSCLC) [µM] | TGI (ACHN renal) [µM] | TGI (BT-549 breast) [µM] | TGI (CAKI-1 renal) [µM] | TGI (EKVX NSCLC) [µM] | TGI (HL-60(TB) leukemia) [µM] | TGI (HOP-62 NSCLC) [µM] | TGI (HOP-92 NSCLC) [µM] | TGI (HT29 colon) [µM] | TGI (KM12 colon) [µM] | TGI (MCF7 breast) [µM] | TGI (RPMI-8226 leukemia) [µM] | TGI (SF-295 CNS) [µM] | TGI (SK-MEL-2 melanoma) [µM] | TGI (SK-MEL-5 melanoma) [µM] | TGI (T-47D breast) [µM] | TGI (TK-10 renal) [µM] | TGI (M14 melanoma) [µM] | TGI (SN12C renal) [µM] | TGI (SNB-19 CNS) [µM]
CN(/N=C\c1ccc2ccccc2c1)C1=NCCN1 | 36.3 | 60 | 29.9 | 27.4 | 63.3 | 33 | 40.7 | 9.02 | 31.3 | 32.8 | 38.7 | 48 | 30.4 | 30.9 | 28.6 | 75.9 | 28.5 | – | – | –
CC(C)(CC#N)c1cc(CC(C)(C)c2cc(CC(C)(C)c3cc(C(C)(C)C4(C)OCCO4)no3)no2)no1 | > 100 | > 100 | > 100 | 87.2 | > 100 | – | > 100 | – | > 100 | > 100 | > 100 | > 100 | > 100 | > 100 | > 100 | > 100 | > 100 | > 100 | > 100 | 77.7
CCOP(=O)(OCC)[C@]12C[C@@H](C)C=C[C@H]1COC2=O | > 100 | > 100 | > 100 | > 100 | > 100 | – | > 100 | – | – | > 100 | > 100 | > 100 | > 100 | > 100 | > 100 | > 100 | > 100 | > 100 | > 100 | > 100
O=C(NCCNCCNC(=O)C(F)(F)F)C(F)(F)F | > 100 | > 100 | > 100 | > 100 | > 100 | > 100 | > 100 | – | > 100 | > 100 | > 100 | > 100 | > 100 | > 100 | > 100 | > 100 | > 100 | > 100 | > 100 | > 100
CCO/C(O)=C(/C(=N)N1CCCC1)C(=O)Nc1ccc(F)cc1 | > 100 | > 100 | > 100 | > 100 | > 100 | > 100 | > 100 | – | > 100 | > 100 | > 100 | > 100 | > 100 | > 100 | – | > 100 | > 100 | > 100 | > 100 | > 100
CC(/C=N\NC(=S)N(C)C)=N/NC(=S)N(C)C | > 100 | – | > 47.7 | > 56.2 | > 100 | – | > 51.1 | 31.2 | > 100 | > 60.9 | > 100 | > 100 | > 100 | 70.7 | 14.1 | 2.78 | > 100 | > 54.1 | > 100 | > 100
C[C@H](CCC(=O)O)[C@H]1CC[C@H]2[C@@H]3[C@H](O)C[C@@H]4C[C@H](O)CC[C@]4(C)[C@H]3CC[C@]12C | > 100 | > 100 | > 100 | > 100 | > 100 | > 100 | > 100 | 91.1 | 87.4 | > 100 | > 100 | 54.8 | – | 53.5 | – | > 100 | > 100 | 85.2 | > 100 | > 100
O[C@H]1[C@H]2[C@H](O)C[C@H](CCOCc3ccccc3)CN2C[C@H]1O | > 100 | > 100 | > 100 | > 100 | > 100 | > 100 | – | > 100 | > 100 | > 100 | > 100 | > 100 | > 100 | > 100 | > 100 | > 100 | – | > 100 | > 100 | > 100
CC1(C)CCC[C@@]2(C)C1C(=O)[C@@H]1O[C@]1(C)[C@@H]2CO (some centres not stated) | > 100 | > 100 | 43.6 | – | > 100 | 51.8 | > 100 | 88 | > 100 | > 100 | > 100 | 53.4 | > 100 | 66.5 | > 100 | > 100 | > 100 | > 100 | > 100 | > 100
CCCC(=O)OCC1OC(n2cc(F)c(=O)[nH]c2=O)C(F)C1OC(=O)CCC (configuration not stated) | > 100 | > 100 | > 100 | > 100 | > 100 | > 100 | > 100 | > 100 | > 100 | > 100 | > 100 | > 100 | > 100 | > 100 | > 100 | > 100 | > 100 | > 100 | > 100 | –
O=S(=O)(NC1OCCCC1I)c1ccccc1 (configuration not stated) | > 100 | > 100 | > 100 | > 100 | > 100 | – | > 100 | > 100 | > 100 | > 100 | > 100 | > 100 | > 100 | > 100 | > 100 | > 100 | > 100 | – | > 100 | > 100
O=C(O)C1(Cc2ccc3c(c2)CCC3)Cc2ccccc2C1=O (configuration not stated) | > 100 | > 100 | > 100 | – | > 100 | > 100 | > 100 | 87.3 | > 100 | > 100 | > 100 | 92.2 | > 100 | > 100 | > 100 | > 100 | > 100 | > 100 | > 100 | > 100
CCSC1=N/C(=C/c2ccccc2O)C(=O)N1 | > 100 | > 100 | > 100 | > 100 | > 100 | > 100 | > 100 | > 100 | > 100 | > 100 | > 100 | > 100 | > 100 | > 100 | > 100 | > 100 | – | > 100 | > 100 | > 100
